{
  "source": "patent US20200268705A1",
  "about": "“CABAZITAXEL COMPOSITION FOR INJECTION AND PREPARATION METHOD THEREFOR” (BIKA BIOTECHNOLOGY (GUANGZHOU) CO., LTD., priority 2018, published 2020)",
  "key": {"[1]": {"assay": "Solubility of cabazitaxel in 40% SBE-β-CD aqueous solution", "assay_type": "physicochemical", "conditions": "found by the present inventors", "excerpt": "Cyclodextrin, a pharmaceutical excipient, has a hollow hydrophobic, stereoscopic chiral inner cavity; due to its structural characteristic of “inner hydrophobic, external hydrophilic”, it can encapsulate a variety of small organic molecules (substrates) having suitable space size to form a noncovalent host-guest complex (inclusion complex). Its most significant pharmaceutical function is to increase the water solubility of poorly soluble drugs and improve the stability of drugs. For example, the invention application No. CA2900508A1 (US20150325321A1) by Valery Alakhov et al. disclosed a composition comprising cabazitaxel and suifobutyl ether beta cyclodextrin (SBF-β-CD) in a weight ratio of 1:30 to 1:1000. […] Even if it can reach such concentration, it is difficult to prepare a cabazitaxel injection that meets the concentration specifications of commercial preparations."}, "[2]": {"assay": "Solubility of cabazitaxel in PEG300/SBE-β-CD/PVPK12/water solution system with additives", "assay_type": "physicochemical", "conditions": "700 mg/ml PEG300, 290 mg/ml SBE-β-CD, 80 mg/ml PVPK12, water, nitrogen", "excerpt": "In view of various defects of the prior art, the inventor of the present application breaks through the prejudice of the prior art, conducts reverse experiments on existing knowledge, reduces the amount of cyclodextrin and abandons the use of ethanol having strong stimulation as a solvent and Tween 80 having side effects."}, "[3]": {"conditions": "cited from earlier work"}},
  "data": [
    {"substance": "(1S,2S,3R,4S,7R,9S,10S,12R,15S)-4-acetyloxy-15-{[(2R,3S)-3-{[(tertbutoxy)carbonylamino]}-2-hydroxy-3-phenylpropanoyl]oxy}-1-hydroxy-9, 12-dimethoxy-10,14,17,17-tetramethyl-11-oxo-6-oxatetracyclo[11.3.1.0^3:10.0^4:7]heptadec-13-ene-2-yl benzoate [cabazitaxel]", "values": [
      {"measurement": "solubility of cabazitaxel", "setting": "[1]", "result": "about 1 mg/mL"},
      {"measurement": "solubility of cabazitaxel", "setting": "[2]", "result": "≥ 40", "unit": "mg/mL"},
      {"measurement": "stability under alkaline conditions", "setting": "[3]; alkaline conditions", "result": "unstable under alkaline conditions"},
      {"measurement": "solubility in ethanol", "setting": "[3]; ethanol", "result": "soluble in ethanol"},
      {"measurement": "solubility in water", "setting": "[3]; water", "result": "almost insoluble in water"}
    ]}
  ]
}
